Data: publication PMC10854695, “Using Flavonoid Substitution Status to Predict Anticancer Effects in Human Melanoma Cancers: An In Vitro Study” (Cancers, 2024)
Where two headings read alike, the source gives them in different places.

Legend:
[1] = system: A375 melanoma cells; assay: Neutral red uptake (NRU) assay, A375; conditions: Homo sapiens, read-out: IC50, cytotoxic activity, NRU assay
Description: (§1) The NRU (neutral red uptake) was conducted as previously described by Szoka and co-workers, with some modifications [22]. Briefly, melanoma cells and fibroblasts were seeded in microplates at the density of 1 × 10^4 cells per well and allowed to adhere for 24 h. […] After treatment, the culture medium was replaced with a neutral red solution (40 µg/mL). An additional 2 h of incubation was performed. The neutral red solution was then removed and the neutral red accumulated in the cells was dissolved in 50% EtOH with 1% of the glacial acetic acid. The absorbance was estimated at 540 nm and IC50 values were calculated using GraphPad Prism software (GraphPad Software, San Diego, CA, USA).

[2] = system: A375 cells; parameters: method as in PMID 28260058; conditions: 40 µM; cited from earlier work
[3] = system: A375 melanoma cells; assay: [3H]-thymidine incorporation (DNA biosynthesis), A375; type: cell-based, human; conditions: read-out: IC50, effect on DNA biosynthesis ([3H]-thymidine incorporation)
Description: (§2) The inhibition of DNA biosynthesis was evaluated using [^3H]-thymidine incorporation into the DNA of melanoma cells (C32, A375) and fibroblasts treated with the studied compounds [21]. The cells were briefly seeded in 24-well plates (1 × 10^5 cells per well) and allowed to adhere for 24 h. […] After incubation for 24, 48, and 72 h, the cells were rinsed three times with PBS. Then, cells were lysed in 1 mL of 0.1 M NaOH containing 1% SDS. The cell lysate was moved into scintillation vials containing scintillation liquid, and the radioactivity of the samples was measured using a liquid scintillation analyzer (Perkin-Elmer, Waltham, MA, USA).

[4] = system: C32 melanoma cells; assay: Neutral red uptake (NRU) assay, C32; conditions: Homo sapiens
Description: as §1

[5] = system: A375 melanoma cells; assay: Apoptosis assay, annexin V/PI flow cytometry, A375; type: cell-based, human; conditions: 48 h
Description: (§3) Firstly, cells were placed in 6-well plates at a density of 1 × 10^5 cells per well and allowed to adhere for 24 h. Then, cells were treated with 25 µM, 50 µM, and 100 μM of the selected flavonoids (1, 6, 15, 16, 17, 37) and incubated for 48 h. Floating and adherent cells were collected and assayed using the manufacturer’s protocol supported by the Dead Cell Apoptosis Kit for flow cytometry. Concisely, 100 μL of an annexin-binding buffer containing a 5 μL annexin V-FITC conjugate solution and 1 μg/mL PI (propidium iodide) was used to disperse the cells. After 15 min of incubation, an additional 400 μL of the mentioned buffer was added. The cells were analyzed with a DxFLEX flow cytometer (Beckman Coulter, Brea, CA, USA).

[6] = system: caspases, PARP, phospho-RSK in C32 cells; assay: Western immunoblot of apoptosis mediators and RSK, C32; type: cell-based, human; conditions: C32, 48 h, Western blot
Description: (§4) Floating cells were harvested by centrifugation of the conditioned media (300× g, 5 min). Cell pellet and adherent cells were lysed in a cell lysis buffer supplemented with inhibitors of proteases and phosphatases. The cell lysate was sonicated (2 × 10 s) on ice with an ultrasonic homogenizer (UP200S, Hielscher Ultrasonics GmbH, Teltow, Germany) and centrifuged for 10 min at 10,000× g. The supernatant was collected and stored in a freezer at −70 °C. Protein concentrations in the cell supernatants were determined using a Lowry assay. Obtained proteins were dissolved on SDS-PAGE gels (7.5%, 10%, or 12%) using the Mini-Protean Tetra system. The proteins were transferred to nitrocellulose membranes using the Mini Trans-Blot Cell wet blotting system. The 5% skim milk was used to block membranes. Then, membranes were probed for 24 h at 4 °C with the following antibodies: anti-phospho-RSK, anti-RSK, anti-PARP, anti-cleaved PARP, anti-caspase-8, anti-caspase-9, anti-caspase-7, anti-caspase-3, and anti-actin. Membranes were incubated with an ECL-HRP (enhanced chemiluminescence-horseradish peroxidase) substrate, and the signal was spotted using the BioSpectrum Imaging System and VisionWorks LS software 7.0 (Ultra-Violet Products, Ltd., San Gabriel, CA, USA). The intensity of the bands was quantified by densitometric analysis using UVIBand software, version 15.08d (Uvitec Ltd., Cambridge, UK).

[7] = in vitro; conditions: human
Description: (§5) The MTT colorimetric assay was performed as a preliminary evaluation of the cytotoxicity of the selected flavonoids according to the method described and validated by Strawa et al. [21]. Briefly, melanoma cells and fibroblasts were seeded in 96-well microplates at a density of 1 × 10^4 cells per well. Fibroblasts were used as a control cell line in order to assess the selectivity of the compounds. […] Subsequently, the cells were washed with PBS, incubated with MTT solution for 2 h, and lysed with dimethyl sulfoxide (DMSO) supplemented with 1% (v/v) Sorensen’s glycine buffer. The absorbance was measured using a microplate reader (EPOCH 2, BioTek, Winooski, VT, USA) at a wavelength of 570 nm. The compounds were used at a final DMSO concentration of no more than 0.1% (v/v) in each well. The results were generated from at least three independent experiments. […] The IC50 values were calculated with GraphPad Prism 9 software (GraphPad Software, San Diego, CA, USA).

[8] = system: cleaved caspase-3 and cleaved caspase-7 in C32 cells; assay: Immunofluorescence of cleaved caspase-3/-7, C32; type: cell-based, human; conditions: C32, 48 h, immunofluorescent staining
[9] = system: A375 cells; parameters: method as in PMID 26911838; conditions: 10 and 20 μM, dose-dependent; cited from earlier work
[10] = system: C32 melanoma cells; assay: [3H]-thymidine incorporation (DNA biosynthesis), C32; type: cell-based, human; conditions: read-out: IC50, effect on DNA biosynthesis ([3H]-thymidine incorporation)
Description: as §2

[11] = system: cleaved caspase-3 and cleaved caspase-7 in A375 cells; assay: Immunofluorescence of cleaved caspase-3/-7, A375; type: cell-based, human; conditions: A375, 48 h, immunofluorescent staining
Description: Firstly, to examine fluorescent signals, cells were placed in the bottom of 96-well black plates at 1 × 10^4 cells per well and permitted to adhere for 24 h. […] After incubating and removing the medium, cells were fixed in 4% paraformaldehyde for 15 min. Later, cells were rinsed three times with PBS and permeabilized with 0.1% Triton X-100 for 5 min at room temperature. The 10% heat-inactivated goat serum in the PBS was used to block non-specific binding. Subsequently, cells were treated with the following antibodies overnight: anti-cleaved caspase 3 and anti-cleaved caspase-7. […] Cell nuclei were stained with Hoechst 33342 and F-actin was stained with Phalloidin-Atto 488. Fluorescent signals were captured using a BD Pathway 855 confocal microscope (Becton Dickinson, Franklin Lakes, NJ, USA). The mean fluorescence intensity was calculated using ImageJ software (National Institutes of Health, Bethesda, Rockville, MD, USA).

[12] = system: A375 melanoma cells; assay: MTT cell viability assay, A375;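 further: Read-out is formazan absorbance at 570 nm after 2 h with MTT, with compounds in at most 0.1% v/v DMSO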
[13] = system: caspases, PARP, phospho-RSK in A375 cells; assay: Western immunoblot of apoptosis mediators and RSK, A375; type: cell-based, human; conditions: A375, 48 h, Western blot
Description: as §4

[14] = system: C32 melanoma cells; assay: Apoptosis assay, annexin V/PI flow cytometry, C32; type: cell-based, human; conditions: C32, 25 µM, 48 h
Description: as §3

[15] = Neutral red uptake (NRU) assay, normal cells; conditions: human, human skin fibroblasts (CCD25Sk)
[16] = system: C32 melanoma cells; assay: MTT cell viability assay, C32; conditions: Homo sapiens, read-out: IC50, cytotoxic activity, MTT test;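 further: MTT added for 2 h, cells lysed in DMSO, absorbance read at 570 nm, compound vehicle kept at or below 0.1% DMSO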
[17] = system: human skin fibroblasts (CCD25Sk); assay: [3H]-thymidine incorporation (DNA biosynthesis), normal cells; type: cell-based; conditions: Homo sapiens, Skin fibroblast, read-out: IC50, effect on DNA biosynthesis ([3H]-thymidine incorporation)
Description: as §2

[18] = MTT cell viability assay, normal cells; conditions: human, human skin fibroblasts (CCD25Sk);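 further: fibroblasts served as non-cancer comparison line for selectivity versus melanoma cells, MTT reduction read as absorbance at 570 nm after 2 h dye exposure, compounds in ≤0.1% DMSO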
Description: as §5

[19] = system: G-361 malignant melanoma cell line; parameters: method as in PMID 36991237; conditions: read-out: IC50, inhibition of viability, MTS test; cited from earlier work
[20] = system: SK-MEL-2 malignant melanoma cell line; parameters: method as in PMID 36991237; conditions: read-out: IC50, inhibition of viability, MTS test; cited from earlier work
[21] = Homo sapiens, A-375, A375, 24 h
[22] = Homo sapiens, A-375, A375, 48 h
[23] = Homo sapiens, A-375, A375, 72 h
[24] = C32, 24 h, read-out: IC50, cytotoxic activity, NRU assay, C32, 24 h
[25] = C32, 48 h, read-out: IC50, cytotoxic activity, NRU assay, C32, 48 h
[26] = C32, 72 h, read-out: IC50, cytotoxic activity, NRU assay, C32, 72 h
[27] = Homo sapiens, A-375, 24 h, read-out: IC50, cytotoxic activity, MTT test, A375, 24 h
[28] = Homo sapiens, A-375, 48 h, read-out: IC50, cytotoxic activity, MTT test, A375, 48 h
[29] = Homo sapiens, A-375, 72 h, read-out: IC50, cytotoxic activity, MTT test, A375, 72 h

| SMILES | IC50 ([1]; A-375, 24 h) [µM] | IC50 ([1]; A-375, 48 h) [µM] | IC50 ([1]; A-375, 72 h) [µM] | IC50 ([3]; A375, 48 h) [µM] | IC50 [3, 21] [µM] | IC50 [3, 22] [µM] | IC50 [3, 23] [µM] | IC50 [4, 24] [µM] | IC50 [4, 25] [µM] | IC50 [4, 26] [µM] | IC50 ([10]; Homo sapiens, C32, C32, 24 h) [µM] | IC50 ([10]; Homo sapiens, C32, C32, 48 h) [µM] | IC50 ([10]; Homo sapiens, C32, C32, 72 h) [µM] | IC50 [12, 27] [µM] | IC50 [12, 28] [µM] | IC50 [12, 29] [µM] | IC50 at 24 h [15] [µM] | IC50 at 48 h [15] [µM] | IC50 at 72 h [15] [µM] | IC50 ([16]; C32, 24 h) [µM] | also measured |
| --- | --- | --- | --- | --- | --- | --- | --- | --- | --- | --- | --- | --- | --- | --- | --- | --- | --- | --- | --- | --- | --- |
| O=c1cc(-c2ccc(O)cc2)oc2cc(O)cc(O)c12 [Compound 1, apigenin] | 64.5 ± 4.3 | 24.7 ± 2.4 | 21.2 ± 1.4 | 28.6 ± 1.8 | 87.7 ± 4.2 | 28.6 ± 0.84 | 23.4 ± 1.6 | 100 to 200 | 25.7 ± 1.6 | 22.4 ± 1.5 | > 200 | 27.1 ± 0.49 | 22.5 ± 1.2 | > 200 | 31.9 ± 3 | 20.7 ± 1.5 | > 200 | 87.8 ± 5.8 | 58 ± 3.2 | > 200 | A375 cell viability, MTT assay [2]: decreased A375 cell viability; level of early apoptotic cells ([5]; A375, 50 µM): 34.2 ± 2.8%; level of late apoptotic cells ([5]; A375, 50 µM): 7.1 ± 1.6%; cleaved PARP and caspase-9 [6]: generated cleaved PARP and caspase-9; IC50 at 24 h [7]: > 200 µM; IC50 at 48 h [7]: > 200 µM; IC50 at 72 h [7]: 100 to 200 µM; caspase-3 expression [8]: notably extended; A375 cell motility and invasion [9]: significantly inhibited; IC50 ([10]; C32, 48 h): 27 ± 1.4 µM; level of cleaved caspase-3 [11]: slightly increased; cleavage of initiator caspases, caspase-9 and caspase-8 [13]: cleavage of both initiator caspases; levels of the caspases-3 and -7 zymogens [13]: decreased levels; percentage of early apoptotic cells [14]: 13.3 ± 2.4%; percentage of late apoptotic cells [14]: 29.4 ± 3.3%; IC50 ([16]; C32, 48 h): 63.1 ± 4.7 µM; IC50 ([16]; C32, 72 h): 31.8 ± 2.5 µM; IC50 ([17]; 24 h): 188 ± 8.1 µM; IC50 ([17]; 48 h): 189 ± 9.5 µM; IC50 ([17]; 72 h): > 200 µM |
| O=c1cc(-c2ccc(O)c(O)c2)oc2cc(O)cc(O)c12 [Compound 6, luteolin] | 58.1 ± 4.2 | 25.7 | 23.9 ± 0.23 | 38.5 ± 2.9 | > 200 | 38.6 ± 0.91 | 30.9 ± 1.8 | 41.3 ± 3.8 | 13.1 | 12.6 ± 1.2 | > 200 | 30.9 ± 2.2 | 24.5 ± 1.81 | > 200 | 38.2 | 24.6 ± 1.6 | > 200 | 45.2 ± 2.6 | 21.4 ± 1.7 | > 200 | IC50 at 24 h [18]: > 200 µM; IC50 at 48 h [18]: 69.7 ± 5.2 µM; IC50 at 72 h [18]: 20.1 ± 1.4 µM; level of early apoptotic cells ([5]; A375, 25 µM): 63.6 ± 6.1%; level of late apoptotic cells ([5]; A375, 25 µM): 13.0 ± 1.8%; cleaved PARP and caspase-9 [6]: generated cleaved PARP and caspase-9; caspase-3 expression [8]: notably extended; level of the cleaved caspase-7 [8]: slightly increased; level of cleaved caspase-3 [11]: slightly increased; IC50 ([12]; read-out: IC50, cytotoxic activity, MTT test, A375, 48 h): 38.2 ± 4.1 µM; cleavage of initiator caspases, caspase-9 and caspase-8 [13]: cleavage of both initiator caspases; levels of the caspases-3 and -7 zymogens [13]: decreased levels; IC50 ([16]; C32, 48 h): 42.1 ± 3.5 µM; IC50 ([16]; C32, 72 h): 13.1 ± 1.3 µM; IC50 ([17]; 24 h): > 200 µM; IC50 ([17]; 48 h): > 200 µM; IC50 ([17]; 72 h): > 200 µM |
| O=c1cc(-c2ccccc2)oc2c(O)c(O)ccc12 [Compound 16, 7,8-dihydroxyflavone] | 100 to 200 | 36 ± 3.5 | 27.4 ± 2.4 | 29.7 ± 1.6 | 62.1 ± 3.9 | 29.7 ± 0.62 | 20.5 ± 2.2 | > 200 | 19.9 ± 1.2 | 16.5 ± 2.1 | 38.1 ± 1.5 | 18.4 ± 0.42 | 12.8 ± 0.9 | 100 to 200 | 33.2 ± 3.2 | 20.5 ± 2.2 | > 200 | 100 to 200 | 72.9 ± 5.6 | 100 to 200 | IC50 at 24 h [18]: > 200 µM; IC50 at 48 h [18]: 100 to 200 µM; IC50 at 72 h [18]: 93.3 ± 8 µM; IC50 [19]: 200 to 250 µM; IC50 [20]: 200 to 250 µM; level of early apoptotic cells ([5]; A375, 25 µM): 49.1 ± 3.9%; level of late apoptotic cells ([5]; A375, 25 µM): 6.4 ± 1.5%; level of the cleaved caspase-7 [8]: slightly increased; IC50 ([10]; C32, 48 h): 18.4 ± 1.4 µM; cleavage of caspase-9 [13]: weak cleavage; expression of cleaved caspase-8 [13]: increased; phosphorylation of the RSK protein [13]: impaired; IC50 ([16]; C32, 48 h): 39.2 ± 2.6 µM; IC50 ([16]; C32, 72 h): 26.2 ± 2.8 µM; IC50 ([17]; 24 h): 81.6 ± 5.8 µM; IC50 ([17]; 48 h): 64.6 ± 2.8 µM; IC50 ([17]; 72 h): 37 ± 2.5 µM |
